Assay results: ChEMBL document CHEMBL1138537, “Small-molecule scaffolds for CYP51 inhibitors identified by high-throughput screening and defined by X-ray crystallography” (Antimicrob Agents Chemother, 2007)
pKd: −log10 of the molar value.

Biological target: Sterol 14alpha-demethylase (Mycobacterium tuberculosis, UniProt P9WPP9, F78L)

With O=C(Nc1ccncc1)C(NS(=O)(=O)c1cccc2nsnc12)c1ccccc1 (stereo unspecified) the pKd was 4.63.
